Data from patent publication EP4707280A1, “1,4-CINEOLE DERIVATIVE AND INTERMEDIATE THEREOF, HERBICIDE CONTAINING SAID DERIVATIVE AS ACTIVE INGREDIENT, METHOD FOR USING HERBICIDE, AND METHOD FOR PREPARING AGROCHEMICAL COMPOSITION” (HOKKO CHEMICAL INDUSTRY CO., LTD., priority 2023, dated 2024).

Key:
Format in all cases: in vivo
[1] = system: Digitaria ciliaris; test: Test Example 4: herbicidal effect test by stem and leaf treatment in upland field; conditions: Digitaria ciliaris; 120 g per 10 ares; sprayed seven days after sowing, upland soil; 14 days after application; read-out: weed inhibition rate
[2] = system: Echinochloa crus-galli; test: as above; conditions: Echinochloa crus-galli; 120 g per 10 ares; sprayed seven days after sowing, upland soil; 14 days after application; read-out: weed inhibition rate
[3] = system: Monochoria vaginalis; test: Test Example 1: herbicidal effect test by soil application in paddy rice; conditions: 120 g active ingredient per 10 ares, applied immediately after sowing, flooded pots, 14 days after application; for pest or weed control at 1200 g/ha: Pontederia vaginalis, soil, 336 h, read-out: weed inhibition rate
Outline: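 Inhibition rate (%) read 14 days after treatment, duplicate pots. Water-diluted emulsifiable concentrate was applied by dropper at 120 g active ingredient/10 ares right after sowing. Seeds (30 per species, 0–1 cm deep) went into puddled paddy soil kept flooded at about 3 cm in a greenhouse.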

[4] = system: Echinochloa crus-galli; test: Test Example 3: herbicidal effect test by soil application in upland field; conditions: Echinochloa crus-galli, 120 g per 10 ares, sprayed one day after sowing, 14 days after application, read-out: weed inhibition rate
Outline: (§1)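 Weed inhibition (%) was assessed 14 days after treatment, in duplicate per concentration group. Seeds had been mixed into the upper 1 cm of upland alluvial loam, and the soil surface was sprayed one day later with the diluted emulsifiable concentrate at 120 g active ingredient per 10 ares.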

[5] = system: Digitaria ciliaris; test: as above; conditions: Digitaria ciliaris, 120 g per 10 ares, sprayed one day after sowing, 14 days after application, read-out: weed inhibition rate
Outline: as §1

[6] = system: Echinochloa crus-galli var. formosensis; test: Test Example 5: herbicidal effect test by soil application in paddy rice (low dose); conditions: Echinochloa crus-galli, soil, 336 h; 7.5 g per 10 ares; applied immediately after sowing, flooded pots; 14 days after application; read-out: weed inhibition rate
Outline: (§2)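 Pre-emergence paddy test: seeds sown 0–1 cm (30 each), pots flooded ~3 cm, greenhouse. EC dilution dropped into water right after sowing, 7.5 g a.i./10 a. Duplicate pots; weed inhibition rate (%) by formula, day 14.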

[7] = system: Echinochloa crus-galli; test: Test Example 8: herbicidal effect test by stem and leaf treatment in upland field (low dose); conditions: Echinochloa crus-galli; 7.5 g per 10 ares; sprayed seven days after sowing, upland soil; 14 days after application; read-out: weed inhibition rate
[8] = system: Digitaria ciliaris; test: as above; conditions: Digitaria ciliaris; 7.5 g per 10 ares; sprayed seven days after sowing, upland soil; 14 days after application; read-out: weed inhibition rate
[9] = system: Scirpus juncoides; test: Test Example 5: herbicidal effect test by soil application in paddy rice (low dose); conditions: Schoenoplectiella juncoides, 336 h, 7.5 g per 10 ares, applied immediately after sowing, flooded pots, 14 days after application, read-out: weed inhibition rate
Outline: as §2

[10] = system: Monochoria vaginalis; test: as above; conditions: Pontederia vaginalis, 336 h, 7.5 g per 10 ares, applied immediately after sowing, flooded pots, 14 days after application, read-out: weed inhibition rate
Outline: as §2

CC(C)[C@]12C[C@@H](OCc3c(F)cccc3F)[C@](C)(C[C@@H]1Br)O2 [1-21, (1S,2R,4R,5S)-5-bromo-2-[(2,6-difluorophenyl)methoxy]-1-methyl-4-isopropyl-7-oxabicyclo[2.2.1]heptane]
≥ 80%: inhibition at 1200 g/ha [1] | inhibition at 1200 g/ha [2] | pest or weed control at 1200 g/ha [3] | inhibition at 1200 g/ha [4] | inhibition at 1200 g/ha [5] | inhibition at 75 g/ha [6] | inhibition at 75 g/ha [7] | inhibition at 75 g/ha [8] | inhibition at 75 g/ha [9] | inhibition at 75 g/ha [10]

CC(C)[C@]12C[C@@H](OCc3c(F)cccc3Br)[C@](C)(CC1=O)O2 [2-355, (1R,4S,5R)-5-((2-bromo-6-fluorobenzyl)oxy)-1-isopropyl-4-methyl-7-oxabicyclo[2.2.1]heptan-2-one]
≥ 80%: inhibition at 1200 g/ha [1] | inhibition at 1200 g/ha [2] | pest or weed control at 1200 g/ha [3] | inhibition at 1200 g/ha [4] | inhibition at 1200 g/ha [5] | inhibition at 75 g/ha [6] | inhibition at 75 g/ha [7] | inhibition at 75 g/ha [8] | inhibition at 75 g/ha [9] | inhibition at 75 g/ha [10]

CC(C)[C@]12C[C@@H](OCc3ccccc3F)[C@](C)(C[C@H]1C)O2 [1-94, (1S,2R,4R,5R)-2-[(2-fluorophenyl)methoxy]-1,5-dimethyl-4-isopropyl-7-oxabicyclo[2.2.1]heptane]
≥ 80%: inhibition at 1200 g/ha [1] | inhibition at 1200 g/ha [2] | pest or weed control at 1200 g/ha [3] | inhibition at 1200 g/ha [4] | inhibition at 1200 g/ha [5] | inhibition at 75 g/ha [6] | inhibition at 75 g/ha [7] | inhibition at 75 g/ha [8] | inhibition at 75 g/ha [9] | inhibition at 75 g/ha [10]

CC(C)[C@]12C[C@@H](OCc3ccccc3F)[C@](C)(C[C@@H]1I)O2 [1-753, (1S,2R,4R,SS)-2-[(2-fluorophenyl)methoxy]-5-iodo-1-methyl-4-isopropyl-7-oxabicyclo[2.2.1]heptane]
≥ 80%: inhibition at 1200 g/ha [2] | weed inhibition rate [3] | inhibition at 1200 g/ha [4] | inhibition at 1200 g/ha [5] | inhibition at 75 g/ha [6] | inhibition at 75 g/ha [7] | inhibition at 75 g/ha [9] | inhibition at 75 g/ha [10]

CC(C)[C@]12C[C@@H](OCc3cccc(Cl)c3)[C@](C)(C[C@@H]1Br)O2 [1-692, (1S,2R,4R,5S)-5-bromo-2-[(3-chlorophenyl)methoxy]-1-methyl-4-isopropyl-7-oxabicyclo[2.2.1]heptane]
≥ 80%: inhibition at 1200 g/ha [1] | inhibition at 1200 g/ha [2] | pest or weed control at 1200 g/ha [3] | inhibition at 1200 g/ha [4] | inhibition at 1200 g/ha [5] | inhibition at 75 g/ha [6] | inhibition at 75 g/ha [9] | inhibition at 75 g/ha [10]

CC(C)[C@]12C[C@@H](OCc3cccs3)[C@](C)(C[C@@H]1Br)O2 [1-721, (1S,2R,4R,5S)-5-bromo-1-methyl-4-isopropyl-2-(thiophen-2-ylmethoxy)-7-oxabicyclo[2.2.1]heptane]
≥ 80%: inhibition at 1200 g/ha [2] | pest or weed control at 1200 g/ha [3] | inhibition at 1200 g/ha [4] | inhibition at 1200 g/ha [5] | inhibition at 75 g/ha [6] | inhibition at 75 g/ha [7] | inhibition at 75 g/ha [8] | inhibition at 75 g/ha [9] | inhibition at 75 g/ha [10]

Cc1ccccc1CO[C@@H]1C[C@]2(C(C)C)O[C@@]1(C)C[C@@H]2F [1-2, (1R,2S,4S,5R)-2-fluoro-1-isopropyl-4-methyl-5-((2-methylbenzyl)oxy)-7-oxabicyclo[2.2.1]heptane]
≥ 80%: inhibition at 1200 g/ha [1] | inhibition at 1200 g/ha [2] | pest or weed control at 1200 g/ha [3] | inhibition at 1200 g/ha [4] | inhibition at 1200 g/ha [5] | inhibition at 75 g/ha [6] | inhibition at 75 g/ha [7] | inhibition at 75 g/ha [8] | inhibition at 75 g/ha [10]

CC(C)C1C[C@]2(C)O[C@@]1(C(C)C)C[C@H]2OCc1ccccc1F (stereo partly drawn) [1-133, (1S,2R,4R)-2-[(2-fluorobenzyl)oxy]-4,5-isopropyl-1-methyl-7-oxabicyclo[2.2.1]heptane]
≥ 80%: inhibition at 1200 g/ha [1] | inhibition at 1200 g/ha [2] | weed inhibition rate [3] | inhibition at 1200 g/ha [4] | inhibition at 1200 g/ha [5] | inhibition at 75 g/ha [6] | inhibition at 75 g/ha [7] | inhibition at 75 g/ha [9] | inhibition at 75 g/ha [10]

CC(C)[C@]12C[C@@H](OCc3ccccc3F)[C@](C)(C/C1=N\O)O2 [2-197, (1R,4S,5R,E)-5-((2-fluorobenzyl)oxy)-1-isopropyl-4-methyl-7-oxabicyclo[2.2.1]heptan-2-one oxime]
≥ 80%: inhibition at 1200 g/ha [1] | inhibition at 1200 g/ha [2] | pest or weed control at 1200 g/ha [3] | inhibition at 1200 g/ha [4] | inhibition at 1200 g/ha [5] | inhibition at 75 g/ha [6] | inhibition at 75 g/ha [7] | inhibition at 75 g/ha [8] | inhibition at 75 g/ha [10]

Cc1cccc(C)c1CO[C@@H]1C[C@@]2(C(C)C)C=C[C@]1(C)O2 [3-3, (1R,4S,5R)-5-[(2,6-dimethylphenyl)methoxy]-4-methyl-1-isopropyl-7-oxabicyclo[2.2.1]hept-2-ene]
≥ 80%: inhibition at 1200 g/ha [1] | inhibition at 1200 g/ha [2] | pest or weed control at 1200 g/ha [3] | inhibition at 1200 g/ha [4] | inhibition at 1200 g/ha [5] | inhibition at 75 g/ha [6] | inhibition at 75 g/ha [9] | inhibition at 75 g/ha [10]

Cc1ccccc1CO[C@@H]1C[C@@]2(C(C)C)C=C[C@]1(C)O2 [3-2, (1R,4S,5R)-4-methyl-5-[(2-methylphenyl)methoxy]-1-isopropyl-7-oxabicyclo[2.2.1]hept-2-ene]
≥ 80%: inhibition at 1200 g/ha [2] | pest or weed control at 1200 g/ha [3] | inhibition at 1200 g/ha [4] | inhibition at 1200 g/ha [5] | inhibition at 75 g/ha [6] | inhibition at 75 g/ha [7] | inhibition at 75 g/ha [9] | inhibition at 75 g/ha [10]

Cc1ccccc1CO[C@@H]1C[C@]2(C(C)C)O[C@@]1(C)C/C2=N\O [2-191, (1R,4S,5R,E)-1-isopropyl-4-methyl-5-((2-methylbenzyl)oxy)-7-oxabicyclo[2.2.1]heptan-2-one oxime]
≥ 80%: inhibition at 1200 g/ha [1] | inhibition at 1200 g/ha [2] | pest or weed control at 1200 g/ha [3] | inhibition at 1200 g/ha [4] | inhibition at 1200 g/ha [5] | inhibition at 75 g/ha [6] | inhibition at 75 g/ha [7] | inhibition at 75 g/ha [8] | inhibition at 75 g/ha [10]

CC(C)[C@]12C[C@@H](OCc3c(F)cccc3Cl)[C@](C)(C[C@@H]1Br)O2 [1-713, (1S,2R,4R,5S)-5-bromo-2-[(2-chloro-6-fluorophenyl)methoxy]-1-methyl-4-isopropyl-7-oxabicyclo[2.2.1]heptane]
≥ 80%: inhibition at 1200 g/ha [1] | inhibition at 1200 g/ha [2] | pest or weed control at 1200 g/ha [3] | inhibition at 1200 g/ha [4] | inhibition at 1200 g/ha [5] | inhibition at 75 g/ha [6] | inhibition at 75 g/ha [7] | inhibition at 75 g/ha [8] | inhibition at 75 g/ha [10]

CC(C)[C@]12C[C@@H](OCc3ccsc3)[C@](C)(C[C@@H]1Br)O2 [1-722, (1S,2R,4R,5S)-5-bromo-1-methyl-4-isopropyl-2-(thiophen-3-ylmethoxy)-7-oxabicyclo[2.2.1]heptane]
≥ 80%: inhibition at 1200 g/ha [1] | inhibition at 1200 g/ha [2] | pest or weed control at 1200 g/ha [3] | inhibition at 1200 g/ha [4] | inhibition at 1200 g/ha [5] | inhibition at 75 g/ha [6] | inhibition at 75 g/ha [7] | inhibition at 75 g/ha [9] | inhibition at 75 g/ha [10]

CC(C)[C@]12C[C@@H](OCc3cccc(F)c3)[C@](C)(C[C@@H]1Br)O2 [1-690, (1S,2R,4R,5S)-5-bromo-2-[(3-fluorophenyl)methoxy]-1-methyl-4-isopropyl-7-oxabicyclo[2.2.1]heptane]
≥ 80%: inhibition at 1200 g/ha [1] | inhibition at 1200 g/ha [2] | pest or weed control at 1200 g/ha [3] | inhibition at 1200 g/ha [4] | inhibition at 1200 g/ha [5] | inhibition at 75 g/ha [6] | inhibition at 75 g/ha [7] | inhibition at 75 g/ha [8] | inhibition at 75 g/ha [10]
